This test deals with OVCAR-3 cells. The test is described as follows: imaging-based nuclear count analysis (NCA) in OVCAR-3 cells. The test is classed as cell-based. Conditions: Homo sapiens, 96 h, 4 days, nuclear count with Hoechst 33342, 0.1% DMSO, low control 10 μM AM-5308. The procedure:
Test name: imaging-based nuclear count analysis (NCA) in OVCAR-3 cells
• a) The final test concentrations of AM-5308:10000, 3333.3, 1111.1, 370.3, 123.4, 41.1, 13.7, 4.5, 1.5, 0.5 nM. • b) The final test concentrations of the test compound: 10000, 3333.3, 1111.1, 370.3, 123.4, 41.1, 13.7, 4.5, 1.5, 0.5 nM. • c) The cells were cultured in a 37° C., 5% CO2 incubator for 4 days. • d) DMSO concentration was 0.1%. Day 1 Seeding the Cells into a 384-Well Cell Culture Plate • a) When the cell confluence reached 80%-90%, the cells were treated. • b) The cells were resuspended in a medium and then counted and diluted at a desired density. • c) A cell suspension containing appropriate cells was added to the 384-well plate at 30 μL/well: 600 cells/well. […]
High-reading control wells: cells+30 nL DMSO; low-reading control wells: 10 μM AM-5308.
IC50 (nM) was calculated using GraphPad Prism 8 software and the effect-dose curves of the compound were plotted.

`O=C(Nc1cccc2c1nc1n2C2CCC1CC2)c1ccc(NS(=O)(=O)CCO)cc1N1CCC2(CC1)CC2` [Compound 100, 4-(2-hydroxyethanesulfonylamino)-2-(6-azaspiro[2.5]octan-6-yl)-N-(1,2,3,4-tetrahydro-1,4-ethylbenzo[4,5]imidazo[1,2-a]pyridin-6-yl)benzamide] had an IC50 of 0.111 µM.
